The text below walks through data of the Kinase Knowledgebase extract (Sharma et al. 2016).

The term IC50 denotes the point on the concentration scale where inhibition reaches its midpoint. High values mean weaker potency in that assay, low ones greater potency in that assay.

Structures are written as SMILES.

The target in one experiment is EGFR (mouse) (UniProt P00533). The following applies: nih3t3/her14.
`CNN=Nc1ccc2ncnc(Nc3cccc(C)c3)c2c1` had an IC50 of 28.9 µM. This counts as double-digit micromolar.
On the same count and under the same terms, the figure for `CN(CO)N=Nc1ccc2ncnc(Nc3cccc(Br)c3)c2c1` is 2.1 µM; for `COc1cc2ncnc(Nc3cccc(Cl)c3)c2cc1OC.Cn1nnc2c(C(N)=O)ncn2c1=O` it is 6.2 µM.
On the same count and under the same terms, the figure for `CC(=O)OCN(C)N=Nc1ccc2ncnc(Nc3cccc(Br)c3)c2c1` is 3.4 µM.
The same measure, in the same setting: the figure for `COc1cc2ncnc(Nc3cccc(Cl)c3)c2cc1OC` is 9.8 µM; for `Cn1nnc2c(C(N)=O)ncn2c1=O` it is 207 µM; for `CNN=Nc1ccc2ncnc(Nc3cccc(Br)c3)c2c1` it is 8.8 µM.
Compound `Nc1ccc2ncnc(Nc3cccc(Br)c3)c2c1` displayed an IC50 of 10.4 µM.
The same measure, in the same setting: as for `CC(=O)N(C)N=Nc1ccc2ncnc(Nc3cccc(C)c3)c2c1`, the figure is 149 µM.

The target of another experiment is EGFR (mouse) (UniProt P00533). The following applies: nih3t3.
For the compound `COc1cc2ncnc(Nc3cccc(Cl)c3)c2cc1OC.Cn1nnc2c(C(N)=O)ncn2c1=O`, the IC50 was 39.4 µM.
Same read-out and setting: the figure for `Cn1nnc2c(C(N)=O)ncn2c1=O` is 214 µM.

The target in another experiment is EGFR (mouse) (UniProt P00533). The following applies: nih3t3/neu.
As for `CNN=Nc1ccc2ncnc(Nc3cccc(C)c3)c2c1`, the concentration for half-maximal inhibition (IC50) amounted to 16500 nM.
Compound `CN(CO)N=Nc1ccc2ncnc(Nc3cccc(Br)c3)c2c1` gave an IC50 of 90 nM.
Same read-out and setting: the figure for `COc1cc2ncnc(Nc3cccc(Cl)c3)c2cc1OC.Cn1nnc2c(C(N)=O)ncn2c1=O` is 1100 nM; for `CC(=O)OCN(C)N=Nc1ccc2ncnc(Nc3cccc(Br)c3)c2c1` it is 210 nM; for `COc1cc2ncnc(Nc3cccc(Cl)c3)c2cc1OC` it is 4000 nM.
On the same count and under the same terms, as for `Cn1nnc2c(C(N)=O)ncn2c1=O`, the figure is 210000 nM; as for `CNN=Nc1ccc2ncnc(Nc3cccc(Br)c3)c2c1`, 90 nM; as for `Nc1ccc2ncnc(Nc3cccc(Br)c3)c2c1`, 420 nM.
On the same count and under the same terms, as for `CC(=O)N(C)N=Nc1ccc2ncnc(Nc3cccc(C)c3)c2c1`, the figure is 60600 nM.
